What all share (type): biochemical
For one experiment, the target named is T1, PKCθ (Homo sapiens, UniProt Q04759).
T1 construct: purchased Pan Vera
Nature of the experiment: Ki Pan Vera (PV) potency for PKCθ. To be noted: Ki Pan Vera (PV) of PKCθ. As for the experimental part: (§1) For Ki Pan Vera (PV) of PKCθ, entries identified with “A” had values below 100 nM; entries identified with “B” had values below 1 μM; and entries identified with “C” had values below 10 μM.

For a further experiment, the target named is T2, PKC delta (Homo sapiens, UniProt Q05655).
T2 construct: purchased Pan Vera
T2 sequence (Q05655 whole entry): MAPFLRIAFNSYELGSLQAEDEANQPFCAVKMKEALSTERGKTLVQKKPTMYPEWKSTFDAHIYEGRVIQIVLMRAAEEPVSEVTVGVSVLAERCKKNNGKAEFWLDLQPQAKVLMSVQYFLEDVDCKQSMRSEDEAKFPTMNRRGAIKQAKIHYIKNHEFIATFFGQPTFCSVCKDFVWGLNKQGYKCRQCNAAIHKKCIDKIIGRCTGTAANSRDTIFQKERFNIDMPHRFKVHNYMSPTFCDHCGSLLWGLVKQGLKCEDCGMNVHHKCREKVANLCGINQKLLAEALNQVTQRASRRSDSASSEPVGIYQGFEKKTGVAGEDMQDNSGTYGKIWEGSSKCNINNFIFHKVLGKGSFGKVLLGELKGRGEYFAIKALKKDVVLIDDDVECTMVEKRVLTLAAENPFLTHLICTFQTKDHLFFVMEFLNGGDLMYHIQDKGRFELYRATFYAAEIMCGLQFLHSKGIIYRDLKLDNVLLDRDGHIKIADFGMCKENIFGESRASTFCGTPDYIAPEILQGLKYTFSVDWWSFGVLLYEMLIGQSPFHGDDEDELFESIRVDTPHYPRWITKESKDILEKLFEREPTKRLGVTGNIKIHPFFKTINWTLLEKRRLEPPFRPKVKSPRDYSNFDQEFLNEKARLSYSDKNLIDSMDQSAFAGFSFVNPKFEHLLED
The experiment in a line: Ki Pan Vera (PV) potency for PKC delta. The note with it: Ki Pan Vera (PV) of PKC delta. As for the experimental part: [The source words this procedure for another target and reports this target under the same test.] as §1

In another experiment the target is T3, PKC alpha (Homo sapiens, UniProt P17252).
T3 construct: purchased Pan Vera
Nature of the experiment: Ki Pan Vera (PV) potency for PKC alpha. To be noted: Ki Pan Vera (PV) of PKC alpha. How it is done:
[The source words this procedure for another target and reports this target under the same test.] as §1

A further experiment addresses T4, SGK kinase (Homo sapiens, UniProt O00141).
T4 sequence (O00141 1-431): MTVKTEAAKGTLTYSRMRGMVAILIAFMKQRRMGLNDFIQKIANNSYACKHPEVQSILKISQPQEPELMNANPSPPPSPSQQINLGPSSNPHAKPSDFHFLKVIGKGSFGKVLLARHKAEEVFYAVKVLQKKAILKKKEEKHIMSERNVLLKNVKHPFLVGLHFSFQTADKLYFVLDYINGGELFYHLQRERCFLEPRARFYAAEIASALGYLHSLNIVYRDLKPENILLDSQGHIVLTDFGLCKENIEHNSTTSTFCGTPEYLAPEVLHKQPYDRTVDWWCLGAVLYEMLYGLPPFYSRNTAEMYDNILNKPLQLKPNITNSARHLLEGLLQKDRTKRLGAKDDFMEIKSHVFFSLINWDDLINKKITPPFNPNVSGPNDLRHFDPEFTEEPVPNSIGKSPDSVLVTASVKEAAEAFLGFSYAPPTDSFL
Nature of the experiment: IC50 for SGK kinase (selectivity). To be noted: for IC50: read-out: IC50-SGK1. How it is done: Entries identified with “1” had values above 250 nM; entries identified with “2” had values above 1 μM; entries identified with “3” had values above 10 μM.

T1 sequence (Q04759 whole entry): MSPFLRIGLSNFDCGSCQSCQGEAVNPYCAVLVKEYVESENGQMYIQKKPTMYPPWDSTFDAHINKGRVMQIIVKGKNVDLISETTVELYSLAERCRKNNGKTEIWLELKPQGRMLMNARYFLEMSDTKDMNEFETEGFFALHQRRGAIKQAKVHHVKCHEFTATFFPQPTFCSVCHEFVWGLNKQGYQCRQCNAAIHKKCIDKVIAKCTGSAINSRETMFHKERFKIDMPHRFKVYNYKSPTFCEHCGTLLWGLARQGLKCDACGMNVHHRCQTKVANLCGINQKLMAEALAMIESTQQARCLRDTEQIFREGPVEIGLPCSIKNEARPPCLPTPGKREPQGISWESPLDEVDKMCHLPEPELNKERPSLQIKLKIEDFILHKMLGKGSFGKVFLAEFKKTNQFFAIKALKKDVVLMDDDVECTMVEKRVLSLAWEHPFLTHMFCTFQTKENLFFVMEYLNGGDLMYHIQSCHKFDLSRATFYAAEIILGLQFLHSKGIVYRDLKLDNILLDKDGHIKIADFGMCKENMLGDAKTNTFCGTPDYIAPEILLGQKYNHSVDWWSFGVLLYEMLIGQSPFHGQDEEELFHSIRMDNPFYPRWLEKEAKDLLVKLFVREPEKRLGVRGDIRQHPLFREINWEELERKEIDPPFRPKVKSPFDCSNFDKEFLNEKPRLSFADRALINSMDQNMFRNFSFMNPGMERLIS

As a reminder, the Ki is the dissociation constant of the complex between target and ligand, obtained from inhibition or displacement. Consider `Fc1cccc(Cl)c1-c1nc2cnc(NCc3ccc(Cl)c(Cl)c3)nc2n1C[C@@H]1CCCNC1` [Compound 132], for which the values for the Ki at PKCθ, on PKC delta and at PKC alpha were less than 10 µM, more than 1 µM and more than 10 µM, respectively.
By IC50 is commonly meant the concentration needed to halve the response being measured. Consider `Fc1ccc(Cl)cc1CNc1ncc2nc(-c3c(Cl)cccc3Cl)n(C[C@@H]3CCCNC3)c2n1` [Compound 102], for which the Ki at PKCθ was less than 0.1 µM; on PKC delta, more than 1 µM; on PKC alpha, more than 1 µM. Besides, the IC50 on SGK kinase was more than 10 µM.
For `Clc1ccc(CNc2ncc3nc(-c4ccccc4Cl)n(C[C@@H]4CCCNC4)c3n2)cc1Cl` [Compound 165], the Ki on PKCθ is less than 10 µM; on PKC delta, more than 1 µM; at PKC alpha it was more than 10 µM.
As for `Fc1ccc(CNc2ncc3nc(-c4c(Cl)cccc4Cl)n(CCC4CCNCC4)c3n2)c(F)c1` [Compound 148], the Ki at PKCθ was less than 1 µM; on PKC delta, more than 1 µM; on PKC alpha, more than 1 µM. The IC50 at SGK kinase was more than 10 µM.
With `Fc1ccc(CNc2ncc3nc(-c4c(Cl)cccc4Cl)n(C[C@@H]4CCCNC4)c3n2)cc1` [Compound 105], the results for the Ki on PKCθ, on PKC delta and on PKC alpha were less than 0.1 µM, more than 0.25 µM and more than 1 µM, respectively. Further, on SGK kinase, the IC50-SGK1 entry is reported as “Inactive”.
In the case of `Fc1ccc(CNc2ncc3nc(-c4c(Cl)cccc4Cl)n(CC4CCNC4)c3n2)cc1Cl` (centres unmarked) [Compound 139], the results for the Ki at PKCθ, on PKC delta and on PKC alpha were less than 1 µM, more than 1 µM and more than 1 µM, respectively.
Turning to `Clc1cccc(Cl)c1-c1nc2cnc(NCc3ccccc3)nc2n1CC1CCNC1` (centres unmarked) [Compound 151], the Ki at PKCθ was less than 1 µM; on PKC delta, more than 1 µM; on PKC alpha it was more than 1 µM. The IC50 at SGK kinase is more than 10 µM.
As for `Clc1cccc(CNc2ncc3nc(-c4c(Cl)cccc4Cl)n(C[C@H]4CCNC4)c3n2)c1` [Compound 135], the Ki on PKCθ is less than 1 µM; on PKC delta, more than 1 µM; at PKC alpha, more than 1 µM. At SGK kinase, the IC50-SGK1 entry is “Inactive”.
Consider `C[C@H](Nc1ncc2nc(-c3ccccc3Cl)n(C[C@@H]3CCCNC3)c2n1)c1ccccc1F` [Compound 217], for which the Ki on PKCθ was less than 1 µM; on PKC delta it was more than 10 µM; on PKC alpha it was more than 10 µM. Also, the IC50-SGK1 entry on SGK kinase is reported as “Inactive”.
Regarding `Clc1cccc(Cl)c1-c1nc2cnc(NCc3ccccc3)nc2n1CCC1CCNCC1` [Compound 141], the Ki on PKCθ was less than 1 µM; on PKC delta, more than 10 µM; at PKC alpha, more than 10 µM. Besides, the IC50 on SGK kinase is more than 1 µM.
In the case of `Fc1ccc(CNc2ncc3nc(-c4c(F)cccc4Cl)n(C[C@@H]4CCCNC4)c3n2)cc1Cl` [Compound 108], the Ki on PKCθ was less than 1 µM; on PKC delta, more than 1 µM; at PKC alpha, more than 1 µM. The IC50-SGK1 result against SGK kinase is given as “Inactive”.
`Fc1ccc(CNc2ncc3nc(-c4c(Cl)cccc4Cl)n(CC4CCNC4)c3n2)cc1` (centres unmarked) [Compound 158]: the Ki was less than 1 µM at PKCθ, more than 1 µM on PKC delta and more than 1 µM on PKC alpha. Further, the IC50 on SGK kinase was more than 10 µM.
For the compound `Clc1cccc(Cl)c1-c1nc2cnc(NCc3cccs3)nc2n1C[C@H]1CCNC1` [Compound 170], the values for the Ki at PKCθ, on PKC delta and on PKC alpha were less than 1 µM, more than 1 µM and more than 1 µM, respectively. Further, the IC50-SGK1 entry at SGK kinase is given as “Inactive”.
Consider `C[C@H](Nc1ncc2nc(-c3c(Cl)cccc3Cl)n(CC3CCNC3)c2n1)c1ccccc1F` (some centres unmarked) [Compound 166], for which the Ki on PKCθ is less than 1 µM; at PKC delta, more than 1 µM; on PKC alpha, more than 1 µM. In addition, the IC50 on SGK kinase was more than 10 µM.
In the case of `Clc1cccc(Cl)c1-c1nc2cnc(NCc3ccco3)nc2n1CCC1CCNCC1` [Compound 214], the Ki at PKCθ is less than 10 µM; at PKC delta it was more than 1 µM; on PKC alpha, more than 1 µM. For the same compound, the IC50 on SGK kinase is more than 10 µM.
As to `Fc1ccc(CNc2ncc3c(n2)C(CC2CNCCO2)C(c2c(F)cccc2Cl)=N3)cc1F` (centres unmarked) [Compound 215], the IC50-SGK1 entry on SGK kinase is on record as “Inactive”.
With `Fc1cccc(CNc2ncc3nc(-c4c(F)cccc4Cl)n(C[C@@H]4CCCNC4)c3n2)c1` [Compound 123], the Ki at PKCθ was less than 1 µM; on PKC delta it was more than 1 µM; at PKC alpha, more than 1 µM.
As to `Clc1cccc(Cl)c1C1=Nc2cnc(NCc3ccsc3)nc2C1C[C@@H]1CCCNC1` (some centres unmarked) [Compound 114], the IC50-SGK1 entry against SGK kinase is “Inactive”.
The same measure, in the same setting: under `NCC1CCC(n2c(-c3cccc(F)c3F)nc3cnc(NCc4ccccc4F)nc32)CC1` (centres unmarked) [Compound 222] stands “Inactive”.
Turning to `Clc1cccc(Cl)c1-c1nc2cnc(NCc3ccccn3)nc2n1CC1CCNC1` (centres unmarked) [Compound 262], the Ki on PKCθ is less than 1 µM; at PKC delta, more than 1 µM; at PKC alpha it was more than 1 µM.
In the case of `Cc1ccsc1CNc1ncc2nc(-c3c(Cl)cccc3Cl)n(C[C@@H]3CCCNC3)c2n1` [Compound 201], the IC50-SGK1 result at SGK kinase is “Inactive”.
For the compound `Fc1ccccc1CNc1ncc2nc(-c3c(Cl)cccc3Cl)n(C[C@@H]3CCNC3)c2n1` [Compound 220], the values for the Ki on PKCθ, on PKC delta and on PKC alpha were less than 1 µM, more than 1 µM and more than 1 µM, respectively.
Turning to `Fc1ccccc1CNc1ncc2nc(-c3cccc(F)c3F)n(CCC3CCNCC3)c2n1` [Compound 238], the inhibition constant Ki at PKCθ is less than 1 µM; on PKC delta, more than 1 µM; at PKC alpha, more than 1 µM.
As to `NC[C@H]1CC[C@H](n2c(-c3c(Cl)cccc3Cl)nc3cnc(NCc4ccccc4F)nc32)CC1` [Compound 149], the Ki at PKCθ was less than 1 µM; on PKC delta, more than 1 µM. For the same compound, the IC50 on SGK kinase is more than 10 µM.
Take `Clc1cccc(Cl)c1C1=Nc2cnc(NCc3nccs3)nc2C1C[C@@H]1CCCNC1` (some centres unmarked) [Compound 137]: the IC50-SGK1 entry on SGK kinase is “Inactive”.
`Fc1ccccc1CNc1ncc2nc(-c3c(Cl)cccc3Cl)n(C[C@@H]3CCCNC3)c2n1` [Compound 111] had a Ki at PKC alpha of more than 1 µM. Further, the IC50-SGK1 result at SGK kinase is reported as “Inactive”.
Consider `C[C@H](Nc1ncc2nc(-c3c(F)cccc3Cl)n(C[C@H]3CCNC3)c2n1)c1ccccc1F` [Compound 226], for which the Ki at PKCθ is less than 1 µM; at PKC delta it was more than 1 µM; at PKC alpha, more than 1 µM.
Turning to `Fc1cccc(CNc2ncc3nc(-c4ccccc4Cl)n(C[C@@H]4CCCNC4)c3n2)c1` [Compound 152], the Ki was less than 1 µM on PKCθ, more than 1 µM at PKC delta and more than 1 µM on PKC alpha.
On to `Fc1ccc(CNc2ncc3nc(-c4c(Cl)cccc4Cl)n(C[C@H]4CCNC4)c3n2)c(F)c1` [Compound 140], for which the Ki was less than 1 µM at PKCθ, more than 1 µM at PKC delta and more than 1 µM at PKC alpha.
For `Clc1ccc(CNc2ncc3nc(-c4c(Cl)cccc4Cl)n(C[C@@H]4CCCNC4)c3n2)cc1Cl` [Compound 107], the Ki at PKCθ was less than 1 µM; on PKC delta, more than 1 µM; on PKC alpha it was more than 10 µM.
Turning to `Fc1cccc(CNc2ncc3nc(-c4c(Cl)cccc4Cl)n(C[C@@H]4CCCNC4)c3n2)c1` [Compound 103], the values for the Ki on PKCθ, on PKC delta and at PKC alpha were less than 0.1 µM, more than 0.25 µM and more than 1 µM, respectively.
`Fc1ccc(Cl)cc1CNc1ncc2nc(-c3c(Cl)cccc3Cl)n(CC3CCNC3)c2n1` (centres unmarked) [Compound 159]: the Ki was less than 1 µM on PKCθ, more than 1 µM at PKC delta and more than 1 µM on PKC alpha.
With `Fc1cccc(Cl)c1-c1nc2cnc(NCc3cccs3)nc2n1C[C@@H]1CCCNC1` [Compound 169], the Ki on PKCθ was less than 1 µM; on PKC delta it was more than 1 µM; at PKC alpha, more than 10 µM.
For `Fc1cccc(Cl)c1-c1nc2cnc(NCc3ccccc3)nc2n1C[C@@H]1CCCNC1` [Compound 145], in that order: less than 1 µM, more than 1 µM and more than 1 µM.
For `Clc1cccc(Cl)c1-c1nc2cnc(NCc3cccs3)nc2n1C[C@@H]1CCCNC1` [Compound 119, (R)-8-(2,6-dichlorophenyl)-9-(piperidin-3-ylmethyl)-N-(thiophen-2-ylmethyl)-9H-purin-2-amine], in that order: less than 0.1 µM, more than 1 µM and more than 1 µM.
`Fc1ccc(CNc2ncc3nc(-c4c(F)cccc4Cl)n(CC4CCNC4)c3n2)cc1Cl` (centres unmarked) [Compound 204]: the Ki on PKCθ is less than 1 µM; at PKC delta it was more than 1 µM; at PKC alpha it was more than 10 µM.
For `Clc1cccc(CNc2ncc3nc(-c4c(Cl)cccc4Cl)n(CC4CCNC4)c3n2)c1` (centres unmarked) [Compound 157] the same measures were less than 1 µM, more than 1 µM and more than 1 µM.
For `Clc1cccc(Cl)c1-c1nc2cnc(NCc3cccs3)nc2n1CCC1CCNCC1` [Compound 203], in that order: less than 1 µM, more than 1 µM and more than 10 µM.
`NC[C@H]1CC[C@H](n2c(-c3ccccc3Cl)nc3cnc(NCc4ccccc4F)nc32)CC1` [Compound 175]: the Ki at PKCθ was less than 1 µM; on PKC delta it was more than 1 µM. The IC50-SGK1 entry against SGK kinase is listed as “Inactive”.
`Fc1ccccc1CNc1ncc2nc(-c3c(Cl)cccc3Cl)n(C3CCNCC3)c2n1` [Compound 221]: the IC50-SGK1 entry on SGK kinase is listed as “Inactive”.

Values taken from patent publication US20110046131A1, “PURINES AS PKC-THETA INHIBITORS” (N.V. Organon and Pharmacopeia, LLC, priority 2006, published 2011).
